Measurements reported in patent publication US11691969B2, “Pyridazinones as PARP7 inhibtors” (Ribon Therapeutics, Inc., priority 2019, dated 2023).

target: PARP7 (Homo sapiens (Human), UniProt Q7Z3E1); assay: TR-FRET assay: displacement of biotinylated Probe A from the TIPARP active site (Enzymatic Assay for Inhibition of PARP7); assay type: binding; settings: TIPARP 6 nM, Probe A 2 nM, 25° C.
Experimental: Example A. Enzymatic Assay for Inhibition of PARP7
Displacement of Probe A, a biotinylated probe binding to the TIPARP active site, was measured using a time-resolved fluorescence energy transfer (TR-FRET) assay. 20 nL of a dose response curve of each test compound was spotted in black 384-well polystyrene proxiplates (Perkin Elmer) using a Mosquito (TTP Labtech). Reactions were performed in a 8 μl volume by adding 6 μL of TIPARP and Probe A in assay buffer (20 mM HEPES pH=8, 100 mM NaCl, 0.1% bovine serum albumin, 2 mM DTT and 0.002% Tween20), incubating with test compound at 25° C. for 30 min, then adding 2 μL of ULight-anti 6×His and LANCE Eu-W1024 labeled streptavidin (Perkin Elmer). The final concentrations of TIPARP and Probe A were 6 nM and 2 nM, respectively. The final concentration of ULight-anti 6×His and LANCE Eu-W1024 labeled streptavidin were 4 nM and 0.25 nM, respectively. Reactions were incubated at 25° C. for an additional 30 min, then read on an Envision platereader equipped with a LANCE/DELFIA top mirror (Perkin Elmer) using excitation of 320 nm and emission of 615 nm and […] with a […]. The ratio of the 665/615 nm emission were calculated for each well to determine the amount of complex of TIPARP and Probe Ain each well. Control wells containing a negative control of 0.25% DMSO vehicle or a positive control of 100 μM 5-(5-(piperidin-4-yloxy)isoindolin-2-yl)-4-(trifluoromethyl)pyridazin-3(2H)-one were used to calculate the % inhibition as described below:
[formula] where TRFcmpd is the TR-FRET ratio from the compound treated well, TRFmin is the TR-FRET ratio from the 5-(5-(piperidin-4-yloxy)isoindolin-2-yl)-4-(trifluoromethyl)pyridazin-3(2H)-one—treated positive control well and TRFmax is the TR-FRET ratio from the DMSO-treated negative control well. The % inhibition values were plotted as a function of compound concentration and the following 4-parameter fit was applied to derive the IC50 values:
[formula] where top and bottom are normally allowed to float, but may be fixed at 100 or 0 respectively in a 3-parameter fit. The Hill Coefficient is normally allowed to float but may also be fixed at 1 in a 3-parameter fit. Y is the % inhibition and X is the compound concentration. Synthesis of Probe A

Sequence of PARP7 (Q7Z3E1 whole entry): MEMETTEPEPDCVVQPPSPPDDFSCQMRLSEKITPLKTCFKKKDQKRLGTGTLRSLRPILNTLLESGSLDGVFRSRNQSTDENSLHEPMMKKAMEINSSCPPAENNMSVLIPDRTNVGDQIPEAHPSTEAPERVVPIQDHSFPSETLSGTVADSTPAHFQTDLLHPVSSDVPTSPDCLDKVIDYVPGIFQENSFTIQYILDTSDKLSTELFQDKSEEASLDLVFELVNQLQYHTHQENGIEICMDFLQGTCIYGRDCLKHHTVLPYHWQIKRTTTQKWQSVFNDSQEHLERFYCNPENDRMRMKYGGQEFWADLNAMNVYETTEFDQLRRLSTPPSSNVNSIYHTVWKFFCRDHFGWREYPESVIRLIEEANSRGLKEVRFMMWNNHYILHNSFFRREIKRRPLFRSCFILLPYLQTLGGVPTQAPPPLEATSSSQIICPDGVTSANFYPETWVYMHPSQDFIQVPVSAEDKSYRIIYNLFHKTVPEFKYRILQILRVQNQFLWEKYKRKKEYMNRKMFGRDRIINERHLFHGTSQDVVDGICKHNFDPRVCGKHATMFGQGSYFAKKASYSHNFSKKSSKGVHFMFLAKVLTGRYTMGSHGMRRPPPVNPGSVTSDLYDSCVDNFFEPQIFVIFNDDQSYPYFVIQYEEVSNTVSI

| SMILES | IC50 [nM] |
| --- | --- |
| C[C@@H](CO[C@@H]1CCN(C2CCN(c3ncc(C(F)(F)F)cn3)CC2)C1=O)Oc1cn[nH]c(=O)c1C(F)(F)F [Example 20B, 5-(((S)-1-(((R)-2-oxo-1-(1-(5-(trifluoromethyl)pyrimidin-2-yl)piperidin-4-yl)pyrrolidin-3-yl)oxy)propan-2-yl)oxy)-4-(trifluoromethyl)pyridazin-3(2H)-one] | < 100 |
| Cc1cnc(N2CCC(N3CC[C@@H](OC[C@H](C)Oc4cn[nH]c(=O)c4C(F)(F)F)C3=O)CC2)nc1 [Example 49B, 5-(((S)-1-(((R)-1-(1-(5-methylpyrimidin-2-yl)piperidin-4-yl)-2-oxopyrrolidin-3-yl)oxy)propan-2-yl)oxy)-4-(trifluoromethyl)pyridazin-3(2H)-one] | < 100 |
| C[C@@H](CO[C@@H]1CCN(C2CCN(c3ncc(C(F)(F)F)cn3)CC2)C1=O)Nc1cn[nH]c(=O)c1C(F)(F)F [Example 10B, 5-((S)-1-((R)-1-(1-(5-(trifluoromethyl)pyrimidin-2-yl)piperidin-4-yl)-2-oxopyrrolidin-3-yloxy)propan-2-ylamino)-4-(trifluoromethyl)pyridazin-3(2H)-one] | < 100 |
| C[C@@H](CO[C@@H]1CCN(C2CCN(c3ncc(C(F)(F)F)cn3)CC2O)C1=O)Oc1cn[nH]c(=O)c1C(F)(F)F (stereo partly drawn) [Example 64B, Syn-5-(((2S)-1-(((3R)-1-(3-hydroxy-1-(5-(trifluoromethyl)pyrimidin-2-yl)piperidin-4-yl)-2-oxopyrrolidin-3-yl)oxy)propan-2-yl)oxy)-4-(trifluoromethyl)pyridazin-3(2H)-one] | < 100 |
| C[C@@H](O)[C@@H](CO[C@@H]1CCN(C2CCN(c3ncc(C(F)(F)F)cn3)CC2)C1=O)Nc1cn[nH]c(=O)c1C(F)(F)F [Example 67, 5-(((2R,3R)-3-hydroxy-1-(((R)-2-oxo-1-(1-(5-(trifluoromethyl)pyrimidin-2-yl)piperidin-4-yl)pyrrolidin-3-yl)oxy)butan-2-yl)amino)-4-(trifluoromethyl)pyridazin-3(2H)-one] | < 100 |
| COC[C@@H](CO[C@H]1CCN(C2CCN(c3ccc(C#N)cn3)CC2)C1=O)Nc1cn[nH]c(=O)c1C(F)(F)F [Example 17A, 6-(4-((S)-3-((S)-3-methoxy-2-((6-oxo-5-(trifluoromethyl)-1,6-dihydropyridazin-4-yl)amino)propoxy)-2-oxopyrrolidin-1-yl)piperidin-1-yl)nicotinonitrile] | 100 to 1000 |
| C[C@@H](CO[C@@H]1CCN(C2CCN(c3cnc(C(F)F)cn3)CC2)C1=O)Nc1cn[nH]c(=O)c1C(F)(F)F [Example 22B, 5-(((S)-1-(((R)-1-(1-(5-(difluoromethyl)pyrazin-2-yl)piperidin-4-yl)-2-oxopyrrolidin-3-yl)oxy)propan-2-yl)amino)-4-(trifluoromethyl)pyridazin-3(2H)-one] | < 100 |
| C[C@@H](CO[C@H]1CCN(C2CCN(c3cnc(C(F)(F)F)cn3)CC2)C1=O)Nc1cn[nH]c(=O)c1C(F)(F)F [Example 13A, 5-(((S)-1-(((S)-2-oxo-1-(1-(5-(trifluoromethyl)pyrazin-2-yl)piperidin-4-yl)pyrrolidin-3-yl)oxy)propan-2-yl)amino)-4-(trifluoromethyl)pyridazin-3(2H)-one] | 100 to 1000 |
| C[C@@H](CO[C@@H]1CCN(C2CCN(c3cnc(C(F)(F)F)cn3)CC2)C1=O)Oc1cn[nH]c(=O)c1C(F)(F)F [Example 31B, 5-(((S)-1-(((R)-2-oxo-1-(1-(5-(trifluoromethyl)pyrazin-2-yl)piperidin-4-yl)pyrrolidin-3-yl)oxy)propan-2-yl)oxy)-4-(trifluoromethyl)pyridazin-3(2H)-one] | 100 to 1000 |
| C[C@@H](CO[C@@H]1CCN(C2CCN(c3ncc(C(F)(F)F)cn3)CC2)C1=O)Oc1cn[nH]c(=O)c1Cl [Example 47B, 4-chloro-5-(((S)-1-(((R)-2-oxo-1-(1-(5-(trifluoromethyl)pyrimidin-2-yl)piperidin-4-yl)pyrrolidin-3-yl)oxy)propan-2-yl)oxy)pyridazin-3(2H)-one] | < 100 |
| COC[C@@H](CO[C@@H]1CCN(C2CCN(c3ncc(C(F)(F)F)cn3)CC2)C1=O)Oc1cn[nH]c(=O)c1C(F)(F)F [Example 51B, 5-(((S)-1-methoxy-3-(((R)-2-oxo-1-(1-(5-(trifluoromethyl)pyrimidin-2-yl)piperidin-4-yl)pyrrolidin-3-yl)oxy)propan-2-yl)oxy)-4-(trifluoromethyl)pyridazin-3(2H)-one] | < 100 |

More lines, now with the values ahead:

| IC50 [nM] | SMILES |
| --- | --- |
| < 100 | C[C@@H](COC1CCN([C@@H]2CCN(c3ncc(C(F)(F)F)cn3)C[C@H]2O)C1=O)Oc1cn[nH]c(=O)c1C(F)(F)F (stereo partly drawn) [Example 65, 5-(((2S)-1-((1-((3R,4R)-3-hydroxy-1-(5-(trifluoromethyl)pyrimidin-2-yl)piperidin-4-yl)-2-oxopyrrolidin-3-yl)oxy)propan-2-yl)oxy)-4-(trifluoromethyl)pyridazin-3(2H)-one] |
| < 100 | N#Cc1ccc(N2CCC(N3CC[C@H](OCCNc4cn[nH]c(=O)c4C(F)(F)F)C3=O)CC2)nc1 [Example 36B] |
| < 100 | C[C@H](Nc1cn[nH]c(=O)c1C(F)(F)F)C(=O)N[C@@H]1CCN(C2CCN(c3ncc(C(F)(F)F)cn3)CC2)C1=O [Example 61, (S)—N—((R)-2-oxo-1-(1-(5-(trifluoromethyl)pyrimidin-2-yl)piperidin-4-yl)pyrrolidin-3-yl)-2-((6-oxo-5-(trifluoromethyl)-1,6-dihydropyridazin-4-yl)amino)propanamide] |
| < 100 | COC[C@@H](COCC(=O)N(C)C1CCN(c2ncc(C(F)(F)F)cn2)CC1)Nc1cn[nH]c(=O)c1C(F)(F)F [Example 9, (S)-2-(3-methoxy-2-((6-oxo-5-(trifluoromethyl)-1,6-dihydropyridazin-4-yl)amino)propoxy)-N-methyl-N-(1-(5-(trifluoromethyl)pyrimidin-2-yl)piperidin-4-yl)acetamide] |
| 100 to 1000 | C[C@@H](CO[C@H]1CCN(C2CCN(c3cnc(C(F)F)cn3)CC2)C1=O)Nc1cn[nH]c(=O)c1C(F)(F)F [Example 22A, 5-(((S)-1-(((S)-1-(1-(5-(difluoromethyl)pyrazin-2-yl)piperidin-4-yl)-2-oxopyrrolidin-3-yl)oxy)propan-2-yl)amino)-4-(trifluoromethyl)pyridazin-3(2H)-one] |
| < 100 | C[C@@H](CO[C@@H]1CCCN(C2CCN(c3ncc(C(F)(F)F)cn3)CC2)C1=O)Nc1cn[nH]c(=O)c1C(F)(F)F [Example 34B, (R)-3-((S)-2-((6-oxo-5-(trifluoromethyl)-1,6-dihydropyridazin-4-yl)amino)propoxy)-1′-(5-(trifluoromethyl)pyrimidin-2-yl)-[1,4′-bipiperidin]-2-one] |
| < 100 | COC[C@@H](CO[C@@H]1CCN(C2CCN(c3cnc(C(F)(F)F)cn3)CC2)C1=O)Nc1cn[nH]c(=O)c1C(F)(F)F [Example 18B] |
| ≥ 1000 | C[C@@H](CO[C@H]1CCN(C2CCN(c3ccc(C#N)cn3)CC2)C1=O)Nc1cn[nH]c(=O)c1C(F)(F)F [Example 14A, 6-(4-((S)-2-oxo-3-((S)-2-((6-oxo-5-(trifluoromethyl)-1,6-dihydropyridazin-4-yl)amino)propoxy)pyrrolidin-1-yl)piperidin-1-yl)nicotinonitrile] |
| < 100 | C[C@@H](COCC(=O)N(C)C1CCN(c2ncc(C(F)(F)F)s2)CC1)Nc1cn[nH]c(=O)c1C(F)(F)F [Example 3, (S)—N-methyl-2-(2-((6-oxo-5-(trifluoromethyl)-1,6-dihydropyridazin-4-yl)amino)propoxy)-N-(1-(5-(trifluoromethyl)thiazol-2-yl)piperidin-4-yl)acetamide] |
